# Values of other authors, collected in US20060062074A1, “Method for intracellular modifications within living cells using pulsed electric fields” (priority 2001, published 2006).
# Tested on: a variety of cell lines
# Conditions: 0.0075% Triton X-100; positive control; literature (Borner et al. 1994)
substance,measurement,value
Triton X-100,induction of apoptosis,induce apoptosis
